Results taken from the NIST ThermoML archive (doi:10.1021/acs.jced.7b00452).

Assay: mn = molality of the nth substance listed, in mol/kg
Conditions: 101.3 kPa, Liquid; for speed of sound: Single path-length method; for mass density: Vibrating tube method

CCN(CC)CCNC(=O)c1ccc(N)cc1.Cl [procainamide hydrochloride] + O
Conditions | mass density, 298.15 K [kg/m3] | mass density, 308.15 K [kg/m3] | mass density, 318.15 K [kg/m3] | speed of sound, 298.15 K [m/s] | speed of sound, 308.15 K [m/s] | speed of sound, 318.15 K [m/s]
m1 = 0.0292 | 998.359 | 995.314 | 991.46 | 1501.6 | 1524.2 | 1538.9
m1 = 0.0328 | 998.521 | 995.471 | 991.615 | 1502.1 | 1524.6 | 1539.2
m1 = 0.043 | 998.975 | 995.914 | 992.05 | 1503.6 | 1525.8 | 1540.3
m1 = 0.0551 | 999.51 | 996.435 | 992.563 | 1505.4 | 1527.1 | 1541.3
m1 = 0.0689 | 1000.14 | 997.048 | 993.168 | 1507.5 | 1528.6 | 1542.7
m1 = 0.076 | 1000.45 | 997.346 | 993.461 | 1508.5 | 1529.5 | 1543.3
m1 = 0.0804 | 1000.66 | 997.55 | 993.641 | 1509.1 | 1530 | 1543.7
m1 = 0.0938 | 1001.27 | 998.14 | 994.212 | 1511.1 | 1531.7 | 1544.9
m1 = 0.1119 | 1002.05 | 998.919 | 994.982 | 1513.8 | 1533.8 | 1546.4
m1 = 0.1194 | 1002.38 | 999.225 | 995.305 | 1514.9 | 1534.8 | 1547.1
m1 = 0.1306 | 1002.87 | 999.706 | 995.779 | 1516.6 | 1536.1 | 1548
m1 = 0.1402 | 1003.3 | 1000.12 | 996.189 | 1517.9 | 1537.3 | 1548.9
m1 = 0.1601 | 1004.18 | 1000.98 | 997.035 | 1520.9 | 1539.7 | 1550.6
m1 = 0.1715 | 1004.66 | 1001.46 | 997.488 | 1522.6 | 1541.1 | 1551.6
